Data from patent US8815931B2, “Oral formulations for tetrapyrrole derivatives” (Biolitec Pharma Marketing Ltd, priority 2009, dated 2014).
Like-named read-outs stand apart in the source and are kept apart here.

Assays:
[1] = tested on: bacteria cells; assay: Dark toxicity towards bacteria cells; type: cell-based; details: 10 μM, no light
[2] = cited from earlier work; for Formation of metabolites in the body: in vivo

| SMILES | Dark toxicity towards bacteria cells [1] | Formation of metabolites in the body [2] | Formation of metabolites in the body ([2]; listed as Temoporfin) | Effect of lipoprotein levels and cholesterol metabolism on pharmacokinetics in plasma ([2]; plasma) |
| --- | --- | --- | --- | --- |
| CCCCCCc1c2nc(c(-c3ccc(C(=O)O)cc3)c3ccc([nH]3)c(-c3ccc(C(=O)O)cc3)c3nc(c(CCCCCC)c4ccc1[nH]4)C(O)C3O)C=C2 (stereo not shown) [BLC 6066, 2,3-Dihydro-2,3-dihydroxy-15,20-dihexyl-5,10-bis(4-carboxy-phenyl)porphyrin] | strong dark toxicity |  |  |  |
| Oc1cccc(-c2c3nc(c(-c4cccc(O)c4)c4ccc([nH]4)c(-c4cccc(O)c4)c4nc(c(-c5cccc(O)c5)c5ccc2[nH]5)CC4)C=C3)c1 [mTHPC, m-tetrahydroxyphenylchlorin] |  | does not form metabolites | no known enzyme system in the mammalian body which can metabolize Temoporfin | neither lipoprotein levels nor cholesterol metabolism affects the pharmacokinetics |
